Laboratory results published in article PMC5807507, “Crystal structures of a bacterial dipeptidyl peptidase IV reveal a novel substrate recognition mechanism distinct from that of mammalian orthologues” (Scientific Reports, 2018).
Where two headings read alike, the source gives them in different places.

Key:
PmDAP IV [1] = target: T1, PmDAP IV (Pseudoxanthomonas mexicana, UniProt Q6F3I7); test: Gly-Pro-MCA fluorescence hydrolysis inhibition; Ki by Cheng-Prusoff; assay type: biochemical
T1 construct: gene dap4; M12I lies in the removed signal; no tag; 723 residues, 82-kDa; homodimer; crystal model Ala22-Pro745
Description: Gly-Pro-MCA fluorescence hydrolysis inhibition; Ki by Cheng-Prusoff on PmDAP IV
Target sequence in this assay (Q6F3I7 22-745): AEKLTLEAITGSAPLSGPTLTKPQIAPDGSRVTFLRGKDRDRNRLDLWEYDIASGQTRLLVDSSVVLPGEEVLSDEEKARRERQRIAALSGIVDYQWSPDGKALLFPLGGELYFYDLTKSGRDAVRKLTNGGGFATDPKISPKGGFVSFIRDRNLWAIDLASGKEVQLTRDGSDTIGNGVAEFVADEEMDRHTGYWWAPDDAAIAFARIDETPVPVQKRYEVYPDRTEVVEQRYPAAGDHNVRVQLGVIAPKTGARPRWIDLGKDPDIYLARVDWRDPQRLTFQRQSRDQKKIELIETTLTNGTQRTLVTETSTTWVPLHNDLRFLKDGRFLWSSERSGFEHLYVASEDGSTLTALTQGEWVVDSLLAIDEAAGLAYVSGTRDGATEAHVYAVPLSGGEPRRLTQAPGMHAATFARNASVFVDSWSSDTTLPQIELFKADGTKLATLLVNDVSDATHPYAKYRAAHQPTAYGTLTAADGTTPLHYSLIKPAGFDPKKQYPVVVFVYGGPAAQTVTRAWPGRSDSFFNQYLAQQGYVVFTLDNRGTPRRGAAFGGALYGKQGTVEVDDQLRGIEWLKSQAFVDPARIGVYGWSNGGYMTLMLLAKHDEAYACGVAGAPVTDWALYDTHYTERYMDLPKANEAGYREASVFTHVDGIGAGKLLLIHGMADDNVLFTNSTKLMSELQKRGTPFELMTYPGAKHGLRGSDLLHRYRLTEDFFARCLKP

PmDAP IV [2] = target: T1, PmDAP IV; test: biochemical
Procedure: Inhibitor sensitivities of PmDAP IV and human DPP IV Gliptins and diprotin A were purchased from NAMIKI SHOJI Co., Ltd. (Tokyo, Japan) and Peptide Institute, Inc. (Osaka, Japan), respectively. Half-maximal inhibitory concentration (IC50) values were determined by fitting to a sigmoid curve (4-parameter logistic curve) using ImageJ[73]. […] Inhibitor concentrations for PmDAP IV were 0.78, 1.56, 3.13, 6.25, 12.5, 25, 50 and 100 µM, and those for human DPP IV were 0.78, 1.56, 3.13, 6.25, 12.5, 25, 50 and 100 nM. Standard deviations were calculated from three independent experiments. Fluorescence intensity was measured with excitation at 355 nm and emission at 460 nm using an Infinite 200 PRO microplate reader. Inhibition constants (Ki) were calculated using the Cheng-Prusoff equation[74]. Arg106 of PmDAP IV, which is involved in the recognition of the carbonyl group of the P2 residue of the substrate peptide, was mutated to Ala or Lys. The mutants were expressed and purified using the method described above for wild-type PmDAP IV. Recombinant human DPP IV was purchased from ATGen Co., Ltd. (Los Angeles, USA). Kinetic parameters were determined by fitting the experimental data to the Michaelis–Menten equation using Excel Solver (Microsoft) by nonlinear least squares fitting for different concentrations (0.78, 1.56, 3.13, 6.25, 12.5, 25, 50 and 100 µM) of glycyl-L-proline 4-methylcoumaryl-7-amide (Gly-Pro-MCA, Peptide Institute) as a substrate. The enzyme reaction was performed in a reaction buffer containing 50 mM sodium phosphate buffer pH 8.0, 5 mM EDTA and 0.005% Tween 20 at 298 K for 20 min, and standard deviations were calculated from three independent experiments. The fluorescence intensity of the released MCA was measured with excitation at 355 nm and emission at 460 nm using an Infinite 200 PRO microplate reader (TECAN).
Target sequence in this assay (Q6F3I7 22-745 limits assumed): as the sequence (Q6F3I7 22-745) above

Ki (PmDAP IV [1]; read-out: PmDAP IV / Ki) [µM]	IC50 (PmDAP IV [2]) [µM]	Ki (PmDAP IV [1]) [µM]	SMILES
3.99 ± 0.07	24.5 ± 0.4	–	Cc1cc2ncc(C(=O)NCC(C)(C)NCC(=O)N3CCC[C@H]3C#N)cn2n1 [Anagliptin]
30 ± 1.16	> 100	–	CC#CCn1c(N2CCC[C@@H](N)C2)nc2c1c(=O)n(Cc1nc(C)c3ccccc3n1)c(=O)n2C [Linagliptin]
23.8 ± 3.8	> 100	–	CS(=O)(=O)n1cc2c(n1)CN([C@H]1CO[C@H](c3cc(F)ccc3F)[C@@H](N)C1)C2 [Omarigliptin]
–	11.1 ± 0.8	1.85 ± 0.13	N#C[C@@H]1C[C@@H]2C[C@@H]2N1C(=O)[C@@H](N)C12CC3CC(CC(O)(C3)C1)C2 [Saxagliptin]
–	24.6 ± 3.6	4 ± 0.59	N[C@@H](CC(=O)N1CCn2c(nnc2C(F)(F)F)C1)Cc1cc(F)c(F)cc1F [Sitagliptin]
2.34 ± 0.09	–	–	Cc1cc(N2CCN([C@@H]3CN[C@H](C(=O)N4CCSC4)C3)CC2)n(-c2ccccc2)n1 [Teneligliptin]
–	> 100	–	Cn1c(=O)cc(N2CCC[C@@H](N)C2)n(Cc2cc(F)ccc2C#N)c1=O [Trelagliptin]
–	18.8 ± 2.4	3.07 ± 0.39	N#C[C@@H]1CCCN1C(=O)CNC12CC3CC(CC(O)(C3)C1)C2 [Vildagliptin]
